Results on two molecules are retold here after patent publication US20130090320A1, “METHOD OF TREATING PROSTATE CANCER” (NIIKI PHARMA INC., priority 2010, published 2013).

Assay [1] deals with LNCaP cell line. The experiment in a line: Docetaxel IC50 in LNCaP from published literature. It counts as cell-based, human. Conditions: ratio of literature docetaxel IC50 in LNCaP to IC50 in PC-3. On the procedure:
In addition, the IC50 values of docetaxel in the LNCaP and PC-3 cell lines were obtained from published literature. The ratios of IC50 values of sodium trans-[tetrachlorobis(1H-indazole)ruthenate(III)] in a cell line sensitive to one of the other drugs and a cell line insensitive to the same drug were calculated. The results are shown in Table 1 below (“Test Drug” in the table denotes sodium trans-[tetrachlorobis(1H-indazole)ruthenate(III)]). […] See Domingo-Domenech et al., Clin. Cancer Res., 12(18):5578-5586 (2006); Blagosklonny et al., J. Urol. 163(3):1022-6 (2000). As such, sodium trans-[tetrachlorobis(1H-indazole)ruthenate(III)] is potentially effective in treating prostate cancer resistant to such other drugs.

Assay [2] concerns LNCaP cell line. The conditions noted are these: Domingo-Domenech et al., Clin. Cancer Res. 2006; cited from earlier work.
A further assay concerns PC-3 cell line. Conditions: Domingo-Domenech et al., Clin. Cancer Res. 2006; cited from earlier work.
Assay [3] concerns PC-3 (Prostate carcinoma). Conditions: PC-3 cell line, MTT, 72 hours post-treatment. On the procedure: (§1) To test the activities of sodium trans-[tetrachlorobis(1H-indazole)ruthenate(III)], ATCC's MTT Cell Proliferation Assay® was performed using human prostate cancer cell lines LNCaP clone FGC (prostate carcinoma) and PC-3 (Prostate carcinoma). Stock cultures were allowed to grow to 70-80% confluence for this study. The anti-proliferative activity of sodium trans-[tetrachlorobis(1H-indazole)[…]], against the indicated cell lines was evaluated in vitro using the ATCC's MTT Cell Proliferation Assay (Catalog No. 30-1010K). LNCaP clone FGC plates were seeded with 4,000 cells/well, and the cells were grown in RPMI 1640 medium containing 1% HEPES (1M solution), 1% sodium pyruvate, 1% glucose (45% solution), 10% heat-inactivated FBS and 1% penicillin/strep/glutamine. PC-3 plates were seeded with 6,000 cells/well, and the cells were grown in Ham's F12 medium containing 10% heat-inactivated FBS, and 1% penicillin/strep/glutamine. Cultures were maintained in a 37° C. humidified 5% CO2/95% air atmosphere. The cells were treated with sodium trans-[tetrachlorobis(1H-indazole)ruthenate(III)] at 1,000 μM, or a series of 4× dilutions thereof (250 μM, 62.5 μM, etc.). 100 μl of medium was removed from each well at 72 hours post-treatment and 10 μl MTT reagent was added to each well. […] The plates were left overnight at room temperature in the dark and was read on a plate reader using SoftMax® Pro (version 5.2, Molecular Devices).
(§2) The absorbance data was analyzed as follows: Absorbance values were converted to Percent of Control and plotted against test agent concentrations for IC50 calculations using SoftMax® Pro (version 5.2, Molecular Devices). […] Percent of Control values were calculated by dividing the absorbance values for each test well by the No Drug Control average (column 11 values; cells+vehicle control) and multiplying by 100. Plots of Compound Concentration versus Percent of Control were analyzed using the 4-parameter equation to obtain IC50 values and other parameters that describe the sigmoidal dose response curve. […]

The subject of assay [4] is LNCaP clone FGC (prostate carcinoma). On the procedure: as §1, §2

SMILES strings stand for the structures.

For the molecule `CC(=O)O[C@@]12CO[C@@H]1C[C@H](O)[C@@]1(C)C(=O)[C@H](O)C3=C(C)[C@@H](OC(=O)[C@H](O)[C@@H](NC(=O)OC(C)(C)C)c4ccccc4)C[C@@](O)([C@@H](OC(=O)c4ccccc4)[C@H]21)C3(C)C` [Docetaxel, docetaxel], the “IC50 Ratio (LNCaP/PC-3)” value with LNCaP cell line [1] is on record as 12-20. Also, the values for the IC50 with LNCaP cell line [2] and with PC-3 cell line were 0.05 to 0.06 µM and 0.0025 to 0.005 µM, respectively.
Regarding `[Cl][Ru-]([Cl])([Cl])[Cl].[Na+].c1ccc2[nH]ncc2c1.c1ccc2[nH]ncc2c1` [sodium trans-[tetrachlorobis(1H-indazole)ruthenate(III)]], the IC50 was found to be 41.8 µM in assay [3] and 17.3 µM in assay [4] (LNCaP cell line, MTT, 72 hours post-treatment). The “IC50 Ratio (LNCaP/PC-3)” value in assay [4] (ratio of Test Drug IC50 in LNCaP to IC50 in PC-3) is recorded as 0.41.

For orientation: IC50 means the concentration at which inhibition is half-maximal.
